According to the NIST ThermoML archive (doi:10.1021/je900596d):

Conditions: for mass density: 303.28 K, Fluid (supercritical or subcritical phases), Vibrating tube method

FC(F)=C(F)C(F)(F)F [hexafluoropropene]
Conditions	vapor or sublimation pressure [kPa]
303.22 K, Liquid, Closed cell (Static) method	839.7

Conditions	mass density [kg/m3]
2.4 kPa	0.14
4.4 kPa	0.19
5.3 kPa	0.25
7.7 kPa	0.38
11 kPa	0.59
12.7 kPa	0.7
13.6 kPa	0.71
14.5 kPa	0.85
16.3 kPa	0.86
17.2 kPa	0.87
18.1 kPa	1.01
22.7 kPa	1.19
24.5 kPa	1.4
26.4 kPa	1.46
28.1 kPa	1.59
30 kPa	1.72
33.6 kPa	1.94
37.2 kPa	2.14
38.2 kPa	2.2
40 kPa	2.21
41.8 kPa	2.46
43.6 kPa	2.43
47.2 kPa	2.81
50.8 kPa	3.02
52.5 kPa	3.04
56 kPa	3.26
57.9 kPa	3.38
59.7 kPa	3.48
61.4 kPa	3.61
63.1 kPa	3.73
64.8 kPa	3.84
66.5 kPa	3.93
68.3 kPa	3.99
73.4 kPa	4.37
76 kPa	4.49
78.6 kPa	4.64
81.2 kPa	4.8
83.8 kPa	4.98
86.4 kPa	5.18
88.9 kPa	5.4
94.2 kPa	5.64
96.9 kPa	5.73
98.7 kPa	5.85
100.4 kPa	6.09
103.1 kPa	6.18
105.7 kPa	6.35
108.4 kPa	6.54
113.7 kPa	6.9
116.4 kPa	6.95
124.2 kPa	7.43
126.7 kPa	7.66
132.1 kPa	7.96
134.8 kPa	8.17
137.3 kPa	8.36
139.9 kPa	8.56
142.5 kPa	8.68
145.1 kPa	8.84
147.8 kPa	9.01
153 kPa	9.28
155.7 kPa	9.53
158.4 kPa	9.61
163.7 kPa	9.96
166.2 kPa	10.08
168.8 kPa	10.29
171.4 kPa	10.52
174 kPa	10.66
176.6 kPa	10.78
179.2 kPa	10.96
181.8 kPa	11.08
184.4 kPa	11.32
187 kPa	11.51
194.7 kPa	11.98
197.5 kPa	12.12
202.8 kPa	12.46
206.2 kPa	12.64
209.6 kPa	12.92
213 kPa	13.17
216.4 kPa	13.34
219.9 kPa	13.6
223.3 kPa	13.85
226.8 kPa	14.01
230.3 kPa	14.3
233.7 kPa	14.54
244.3 kPa	15.23
247.7 kPa	15.41
251.2 kPa	15.74
254.6 kPa	15.88
258.1 kPa	16.18
261.6 kPa	16.37
265.1 kPa	16.6
268.6 kPa	16.83
275.3 kPa	17.32
278.7 kPa	17.49
282.2 kPa	17.78
285.5 kPa	17.97
289 kPa	18.22
295.7 kPa	18.58
299.1 kPa	18.89
309 kPa	19.54
313.2 kPa	19.76
317.3 kPa	20.15
321.7 kPa	20.39
325.7 kPa	20.7
329.8 kPa	21.01
338 kPa	21.54
342 kPa	21.84
346.2 kPa	22.19
350.3 kPa	22.34
358.6 kPa	23.03
362.7 kPa	23.29
366.9 kPa	23.58
375.1 kPa	24.18
379.2 kPa	24.47
383.4 kPa	24.75
387.5 kPa	25.04
391.7 kPa	25.35
395.8 kPa	25.63
399.9 kPa	25.95
406.9 kPa	26.42
416.6 kPa	27.12
421.9 kPa	27.51
426.1 kPa	27.84
435.7 kPa	28.54
441.2 kPa	28.92
446.7 kPa	29.28
452.1 kPa	29.75
457.4 kPa	30.13
461.6 kPa	30.45
467 kPa	30.79
472.4 kPa	31.26
477.7 kPa	31.6
488.4 kPa	32.46
